The source made the active and inactive calls. The rule behind the calls is not given here.
Tests used:
Histamine H1 receptor = Histamine H1 receptor (Cavia porcellus, UniProt P31389); assay: Displacement of [3H]-mepyramine from histamine H1 receptor in guinea pig cerebellum homogenates incubated for 60 mins by Cheng and Prusoff equation analysis by scintillation counting analysis; assay type: tissue-based
Rattus norvegicus [1] = assay: Anti-nociceptive activity in Sprague-Dawley rat assessed as reduction in total time spent licking injected paw during early phase (0 to 5 mins) at 1 to 10 mg/kg, po dosed 1 hr before formalin injection; assay type: functional
[2] = Acute toxicity in KM mouse assessed as effect on survival at 50 to 1000 mg/kg, po after 24 hrs; assay type: organism-based; settings: in vivo
Rattus norvegicus [3] = assay: Anti-nociceptive activity in Sprague-Dawley rat assessed as reduction in total time spent licking injected paw during delayed phase (15 to 45 mins) at 1 to 10 mg/kg, po dosed 1 hr before formalin injection; assay type: functional
Histamine H3 receptor = Histamine H3 receptor (Rattus norvegicus, UniProt Q9QYN8); assay: Displacement of [3H]-N-alpha-methylhistamine from histamine H3 receptor in rat cerebral cortex homogenates incubated for 60 mins by Cheng and Prusoff equation analysis by scintillation counting analysis
Rattus norvegicus [4] = assay: Anti-nociceptive activity in Sprague-Dawley rat assessed as reduction in total time spent licking injected paw during delayed phase (15 to 45 mins) at 1 mg/kg, po dosed 1 hr before formalin injection; assay type: functional, organism-based
Rattus norvegicus [5] = assay: Anti-nociceptive activity in Sprague-Dawley rat assessed as reduction in total time spent licking injected paw during early phase (0 to 5 mins) at 1 mg/kg, po dosed 1 hr before formalin injection; assay type: functional, organism-based
Rattus norvegicus [6] = assay: Anti-nociceptive activity in Sprague-Dawley rat assessed as reduction in total time spent licking injected paw during early phase (0 to 5 mins) at 40 mg/kg, po dosed 1 hr before formalin injection; assay type: functional, organism-based
Rattus norvegicus [7] = assay: Anti-nociceptive activity in Sprague-Dawley rat assessed as reduction in total time spent licking injected paw during delayed phase (15 to 45 mins) at 40 mg/kg, po dosed 1 hr before formalin injection; assay type: functional, organism-based

Sequence of Histamine H3 receptor (Q9QYN8 whole entry): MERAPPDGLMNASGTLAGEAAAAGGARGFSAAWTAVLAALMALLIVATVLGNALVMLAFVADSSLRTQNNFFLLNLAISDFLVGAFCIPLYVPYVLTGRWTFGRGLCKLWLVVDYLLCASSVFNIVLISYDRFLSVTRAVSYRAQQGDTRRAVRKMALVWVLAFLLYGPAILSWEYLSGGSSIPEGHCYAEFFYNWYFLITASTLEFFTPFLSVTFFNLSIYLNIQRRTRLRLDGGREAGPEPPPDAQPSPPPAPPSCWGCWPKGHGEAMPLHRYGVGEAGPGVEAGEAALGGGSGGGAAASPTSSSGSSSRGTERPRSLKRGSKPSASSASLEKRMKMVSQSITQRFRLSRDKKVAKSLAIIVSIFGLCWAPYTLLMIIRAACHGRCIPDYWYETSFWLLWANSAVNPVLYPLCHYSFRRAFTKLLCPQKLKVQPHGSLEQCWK
Sequence of Histamine H1 receptor (P31389 whole entry): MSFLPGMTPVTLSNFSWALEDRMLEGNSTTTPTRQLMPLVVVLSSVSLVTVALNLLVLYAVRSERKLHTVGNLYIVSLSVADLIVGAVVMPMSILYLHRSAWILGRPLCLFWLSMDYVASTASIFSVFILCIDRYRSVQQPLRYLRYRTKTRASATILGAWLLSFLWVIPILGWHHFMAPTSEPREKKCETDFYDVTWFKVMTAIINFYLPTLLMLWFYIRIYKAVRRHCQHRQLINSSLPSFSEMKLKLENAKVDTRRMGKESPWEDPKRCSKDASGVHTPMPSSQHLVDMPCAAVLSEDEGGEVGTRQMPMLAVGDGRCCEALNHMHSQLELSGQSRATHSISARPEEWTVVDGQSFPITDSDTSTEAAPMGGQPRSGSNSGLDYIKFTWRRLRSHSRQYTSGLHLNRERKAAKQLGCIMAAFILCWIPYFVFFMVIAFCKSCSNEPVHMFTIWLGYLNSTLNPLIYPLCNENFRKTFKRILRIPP

CN1CCc2ccc(OCCCN3CCC(=O)CC3)cc2C1=O
Ki (Histamine H1 receptor): 176 nM

CN1CCc2ccc(OCCCN3CCC(O)C3)cc2C1=O (stereo not drawn)
Ki (Histamine H1 receptor): 112 nM

CN1CCc2ccc(OCC(O)CN3CCOCC3)cc2C1=O (stereo not drawn)
Ki (Histamine H1 receptor): > 2000 nM

CN1CCc2ccc(OCCCN3CCOCC3)cc2C1=O
Activity (Rattus norvegicus [1]): Dose-dependent effect | ED50 (Rattus norvegicus [1]): 1.3 mg/kg | LD50 at 24 h [2]: > 1000 mg/kg | Ki (Histamine H1 receptor): 6.5 nM | Activity (Rattus norvegicus [3]): Dose-dependent effect | ED50 (Rattus norvegicus [3]): 2.4 mg/kg | Ki (Histamine H3 receptor): 1030 nM

CN1CCc2ccc(OCCCCN3CCOCC3)cc2C1=O
Ki (Histamine H1 receptor): 856 nM

CN1CCc2ccc(OCCN3CCOCC3)cc2C1=O
Ki (Histamine H1 receptor): 1210 nM

CCN1CCN(CCCOc2ccc3c(c2)C(=O)N(C)CC3)CC1
Ki (Histamine H1 receptor): 1100 nM

NC(=O)c1ccc(OCCCN2C[C@H]3CCC[C@H]3C2)cc1
Activity (Rattus norvegicus [4]): Active | Activity (Rattus norvegicus [5]): Active | Ki (Histamine H1 receptor): 3.6 nM | Ki (Histamine H3 receptor): 426 nM

CN1CCc2ccc(OCCCN3CCCCC3)cc2C1=O
Ki (Histamine H1 receptor): 23 nM | Ki (Histamine H3 receptor): 189 nM

CC1CCCN1CCCOc1ccc2c(c1)C(=O)N(C)CC2 (stereo not drawn)
Ki (Histamine H1 receptor): 26 nM | Ki (Histamine H3 receptor): 68 nM

CC(C)C[C@H](CN)CC(=O)O
Activity (Rattus norvegicus [6]): Active | Activity (Rattus norvegicus [7]): Active

CC1CCCCN1CCCOc1ccc2c(c1)C(=O)N(C)CC2 (stereo not drawn)
Ki (Histamine H1 receptor): 165 nM

CN1CCN(CCCOc2ccc3c(c2)C(=O)N(C)CC3)CC1
Ki (Histamine H1 receptor): 706 nM

CCN1CCc2ccc(OCCCN3CCOCC3)cc2C1=O
Ki (Histamine H1 receptor): 252 nM

CN1CCc2ccc(OCCCN3CCCC3)cc2C1=O
Ki (Histamine H1 receptor): 39 nM | Ki (Histamine H3 receptor): 169 nM

CN1CCc2ccc(OCCCN3CCC(O)CC3)cc2C1=O
Ki (Histamine H1 receptor): 35 nM | Ki (Histamine H3 receptor): 908 nM

CCN(CC)CCCOc1ccc2c(c1)C(=O)N(C)CC2
Ki (Histamine H1 receptor): 542 nM

CC1CCN(CCCOc2ccc3c(c2)C(=O)N(C)CC3)CC1
Ki (Histamine H1 receptor): 32 nM | Ki (Histamine H3 receptor): 279 nM

From ChEMBL document CHEMBL4339210, “Synthesis and evaluation of histamine H3 receptor ligand based on lactam scaffold as agents for treating neuropathic pain” (Bioorg Med Chem Lett, 2019)
